# “Also recorded” adds a separate entry of the source.
# Tested on: spontaneous sleep-related central apneas
# Assay: Induction and suppression of sleep apneas by serotonin and GR38032F (Example 3)
# Format: in vivo, rat (Sprague-Dawley)
# Procedure: Ten adult male Sprague-Dawley rats (Sasco-King, Wilmington, Mass.; 300 g) were maintained on a 12-h light (08:00–20:00 hour)/12-hour dark (20:00–08:00) cycle for one week, housed in individual cages, and given ad libitum access to food and water. Following the one week of acclimatization, animals were prepared for physiological testing via the surgical procedures (i.e., implantation of cortical electrodes for EEG recording and neck muscle electrodes for EMG recording, implantation of a radiotelemetry transmitter for BP and HP monitoring) as set forth above in Example 1. After completion of the surgical procedures, animals were allowed a one week recovery period prior to use in the present study. Each animal was recorded on four occasions, with recordings for an individual animal separated by at least three days. Fifteen minutes prior to each recording, each animal received (via intraperitoneal injection), in random order, one of the following: (a) saline solution (control); (b) 0.79 mg/kg serotonin; (c) 0.1 mg/kg GR38032F plus 0.79 mg/kg serotonin; or (d) 0.1 mg/kg GR38032F. For the GR38032F+serotonin test group, 0.1 mg/kg GR38032F was administered at time 09:30 followed by 0.79 mg/kg serotonin at time 09:45. Polygraphic recordings were made from 10:00–16:00. Respiration BP, EEG, and EMG data were determined and recorded via the experimental procedure as specifically set forth above in Example 2. As in Example 2, sleep apneas, defined as cessation of respiratory effort for at least 2.5 s, were scored for each recording session and were associated with the stage in which they occurred: NREM or REM sleep. The duration requirement of 2.5 s represents at least two “missed” breaths, which is analogous to a 10-s apnea duration requirement in humans. The effects of sleep stage (NREM vs REM) and injection (control vs. administration of either serotonin alone, GR38032F+serotonin, or GR38032F alone) on apnea indexes, respiratory pattern, BP, and HP were tested using analysis of variance (ANOVA) with repeated measures. Multiple comparisons were controlled using Fisher's protected least-significance difference (PLSD). One-way ANOVA was also performed by nonparametric (Kruskal-Wallis) analysis. Conclusions using parametric and nonparametric ANOVA were identical in all cases.
smiles,measurement,setting,value
"Cc1nccn1CC1CCc2c(c3ccccc3n2C)C1=O.Cl.O.O (stereo not drawn) [GR38032F, 1,2,3,9-tetrahydro-9-methyl-3-[(2-methylimidazol-1-yl)methyl]carbazole-4-one, hydrochloride, dihydrate]",antagonism of the serotonin-induced increase of REM sleep apneas,"0.1 mg/kg GR38032F i.p. 15 min before 0.79 mg/kg serotonin, hydrochloride, dihydrate",abolished; also recorded: fully blocked
same,effect on REM sleep spontaneous apneas,GR38032F alone 0.1 mg/kg i.p.,had no effect on REM sleep spontaneous apneas
same,spontaneous apnea index during NREM sleep,"i.p., serotonin 0.79 mg/kg, GR38032F 0.1 mg/kg, 6 hour recording",not affected by any drug treatment

# — patent US7160898B2, “Pharmacological treatment for sleep apnea” (Board of Trustees of The University of Illinois, priority 2002, dated 2007)
